Experimental findings from patent US9365851B2, “Spalt-like transcription factor 4 (SALL4) and uses thereof” (National University of Singapore, priority 2011, dated 2016) are described below.

The subject of one assay is PTEN/AKT pathway. Kind of assay: PTEN/AKT pathway expression in SNU-398 cells after treatment (Western blot, mRNA). The settings on record: SNU-398. It counts as cell-based, human. The source says:
The induction of Pten expression was not affected when wt peptide was administrated together with a Pten inhibitor. AKT, a molecule with levels of phosphorylation controlled by the expression of Pten was affected by the wt peptide addition accordingly. […] The effect of wt peptide on pAKT was abrogated by the Pten inhibitor. […] In contrast, the protein expression level of endogenous Pten was very high in the none-SALL4 expressing SNU387 cells.
Then tested was whether this peptide could reverse the repressive effect of SALL4 on its target genes. The focus was onPTEN, since it is implicated in SALL4-mediated leukemogenesis (Yang et al., Blood, 112:805-813 (2008); Lu et al., PLoS One, 4:e5577 (2009)). In addition, it was previously reported that SALL4 could specifically bind to the PTEN promoter region in a chromatin immunoprecipitation (ChIP) assay (Lu et al., PLoS One, 4:e5577 (2009)). When SALL4 was overexpressed in 293T cells, an enrichment of SALL4 as well as decreased H3 acetylation at this binding site was observed, which correlated with decreased PTEN RNA expression (Lu et al., PLoS One, 4:e5577 (2009))). Therefore, it was hypothesized that SALL4 could recruit the HDAC/NuRD complex to repress PTEN, and that the wild type peptide would compete with endogenous SALL4 in recruiting the HDAC/NuRD complex to the PTEN promoter, and release the repression effect of SALL4 on PTEN. Furthermore, this model would predict that wild type peptide treatment of SALL4-expressing cells would lead to increased epigenetic markers of gene activation, such as H3 acetylation, at the PTEN promoter binding site, as well as an increase in PTEN expression. To test this possibility, SNU-398 cells were treated with scrambled or wild type peptide and subsequently evaluated for PTEN expression and H3 acetylation at the SALL4 binding site at the PTEN promoter region. […] Therefore, the results herein are compatible with the model that SALL4 recruits HDACs to repress PTEN expression, and blocking the SALL4-HDAC interaction with the wild type peptide results in increased expression of PTEN.
To confirm the involvement of PTEN tumor suppressor in SALL4 peptide-induced reduction of number of viable HCC cells, PTEN expression was analyzed by western blot upon drug treatment. […] Whether the increase in PTEN expression upon SALL4 peptide treatment has an effect in PI3K signalling by dephosphorylating AKT was examined.
To confirm the involvement of the PTEN tumor suppressor in the SALL4 peptide-induced reduction of HCC cell viability, PTEN expression was analyzed by western blot upon drug treatment. […] If the increase in PTEN expression has an effect in PI3K signaling was next examined. PTEN functions as a phosphatase to dephosphorylate AKT.
(In general: A western blot detects proteins with antibodies after separation by electrophoresis.)

A further assay concerns SNU-398 cells. Kind of assay: Cell viability assay (MTT/MTS). The settings on record: for cell viability on co-treatment with wt peptide (rescue): SNU-398, wt peptide + PTEN inhibitor. The format is cell-based, human. The method, then:
(§1) Cell viability was determined 72 hours after peptide treatments. Absorbance at 490 nm is directly correlated to cell viability. Wild type functional SALL4 peptide (wt), mutant non-functional SALL4 peptide (Mut.), trichostatin A (TSA), scrambled control peptide (Scr.), wild type peptide+PTEN inhibitor SF1670 (wt+Inh.) were given to the cells at the indicated concentration. PTEN inhibitor concentration was 400 nM. (31C, 31D) Western blot analyses of the effects of peptides on PTEN, AKT, and pAKT expression on SNU-398 (31C) and SNU-387 (31D) cells 72 hours following peptide treatments. 20 μM of wt or Scr. peptide or 100 nM of TSA was used. PTEN inhibitor concentration was 400 nM. (31E) Representative images show NOD/SCID mice transplanted with Scr peptide- and wt peptide-treated SNU-398 cells (left) and the dissected subcutaneous tumors (right). Arrow indicates subcutaneous tumor. (31F) Growth curve of subcutaneous tumors (left panel) and tumor weight of tumors dissected at day 26 post-transplantation (right panel). Results are mean±s.d. n=5; * P<0.05. (31G) Representative images show NOD/SCID mice transplanted with 3 million SNU-398 cells at the left flank and treated intraperitoneally for five consecutive days with 56 mg/kg body weight TAT-Mut. peptide or 60 mg/kg body weight wt peptide (top panel) and the dissected subcutaneous tumors (bottom). (31H) Tumor weight of tumors dissected at day 18 post-transplantation and post-treatment of mice treated intraperitoneally with TAT fusion peptides as described in 5 g. Results are mean±s.d. n=5; * P<0.05.
(§2) Cell viability assay (MTT) (Invitrogen) was performed according to the manufacturer's instructions. Briefly—10000 cells were seeded in 100 ul medium in 96 well plates. The next day cells were treated as indicated on the figures. At the designated time after the treatment 20 ul of 5 mg/ml MTT solution was added to each well. After 3.5 h incubation at 37 C the medium was removed and the reaction was terminated with a solution of 4 mM HCl, 0.1% Nondet P-40 (NP40) all in isopropanol in dark on orbital shaker for […]. at room temperature. The absorbance was read at 590 nm with a reference filter of 620 nm in Spectromax M3 (ABI) spectrophotometer.
(§3) Multiple leukemic and solid tumor cancer cell lines with high or low/no SALL4 expression (FIG. 10A) were chosen to test the biological effect(s) of the wild type peptide. Wild type or scrambled peptide was delivered into tumor cells at various concentrations, and their effects on cells were evaluated 72 hours post-treatment by the MTS cell viability assay. […] The effect of wild type peptide is SALL4-specific, as it had no effect on KBM5, an AML cell line with undetectable endogenous SALL4 expression. We were surprised to see that the wild type peptide had no effect on a high SALL4-expressing endometrioid cancer cell line, AN3CA. This prompted checking whether PTEN, a gene repressed by SALL4 through its interaction with NuRD 27, was present in this cell line. According to the model herein, the function of wild type peptide requires both the expression of SALL4 and intact SALL4 downstream target genes, such as PTEN. In tumor cells with PTEN deletion, even though wild type peptide could compete with endogenous SALL4 in interacting with the HDAC complex, an anti-proliferative effect might not be observed. Therefore, expression of PTEN was evaluated in AN3CA cells along with other cell lines. While PTEN protein was present in all the other cell lines, it was absent in AN3CA cells (FIG. 10C), with reported deletion mutation of the gene in this cell line 40,41. […] Furthermore, the anti-proliferative effect also required certain downstream targets, such as PTEN.
7000 cells were seeded in each wells of a microtiter plate in 100 μL of complete medium. Cells from each treatment were seeded in duplicate. Controls using the same medium without cells were set up in parallel. […]

The subject of a further assay is SNU-387 cells. Kind of assay: Cell viability assay (MTT/MTS). It counts as cell-based, human. The settings on record: SNU-387, wt peptide + PTEN inhibitor. On the procedure: as §1, §2
7000 cells were seeded in each wells of a microtiter plate in 100 μL of complete medium. Cells from each treatment were seeded in duplicate. Controls using the same medium without cells were set up in parallel. At various time points, 317 μg/mL of 3-(4,5-dimethylthiazol-2-yl)-5-(3-carboxymethoxyphenyl)-2-(4-sulfophenyl)-2H-tetrazolium (CellTiter96® AQueous One Solution Cell Proliferation Assay, Promega) was added to each well. After four hours incubation of the tetrazolium salt, absorbance at 490 nm was read by a microplate reader.

The subject of another assay is KBM5 cells. The assay can be described thus: MTS cell viability assay. To be noted: KBM5, wt peptide + PTEN inhibitor. The format is cell-based. The method, then: as §3
(§4) To further test whether the effect of wild type peptide on tumor cells is related to PTEN, a PTEN inhibitor (SF1670) was used (Li et al., Blood, 117:6702-6713). […] As a control for the specificity of SALL4, KBM5, a non-SALL4-expressing cell line was also treated with PTEN inhibitor.

The subject of a further assay is THP1 cells. The assay can be described thus: MTS cell viability assay. The format is cell-based. To be noted: THP1, wt peptide + PTEN inhibitor. On the procedure:
as §3, §4
(Tetrazolium assays rely on reduction of a dye to a coloured formazan, in cell work by metabolically active cells.)

The target in another assay is T1, HDAC complex (Homo sapiens, UniProt Q09028).
T1 construct: endogenous in cells; host or cells: SNU-398 nuclear extract
T1 sequence (Q09028 whole entry, one chain of several): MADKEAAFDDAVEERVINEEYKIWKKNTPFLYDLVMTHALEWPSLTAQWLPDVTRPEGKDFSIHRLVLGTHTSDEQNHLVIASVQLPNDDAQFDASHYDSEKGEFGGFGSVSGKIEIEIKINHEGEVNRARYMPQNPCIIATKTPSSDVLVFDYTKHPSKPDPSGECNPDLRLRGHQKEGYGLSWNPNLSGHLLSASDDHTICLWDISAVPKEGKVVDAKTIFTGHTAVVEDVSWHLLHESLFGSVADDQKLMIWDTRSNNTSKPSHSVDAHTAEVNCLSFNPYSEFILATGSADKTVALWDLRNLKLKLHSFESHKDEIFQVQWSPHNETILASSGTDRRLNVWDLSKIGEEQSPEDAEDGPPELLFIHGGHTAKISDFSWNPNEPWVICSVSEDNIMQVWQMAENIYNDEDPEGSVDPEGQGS
Kind of assay: Fluorescent polarization competitive binding in SNU-398 nuclear extracts. To be noted: Example 6. The method, then: Below are the amino acid sequences of the peptides used in this study. In the mutant peptide (mut), Lys 5 is replaced with an alanine residue. […] In the first lane marked “Input”, 10% of the extracts were subjected to western blot analysis without immunoprecipitation. […] Extracts were subsequently immunoprecipitated with anti-FITC antibody and the complexes pulled down were subjected to an HDAC activity assay as described in the methods. TSA was added at a concentration of 100 nM. Input is the sample in which 10% of the extract was assayed for HDAC activity without the immunoprecipitation step. […] Competitive binding of nonlabeled wild type or scrambled peptides was measured by fluorescent polarization. […] The fluorescent polarization (y axis) is decreased if the FITC-labeled peptide is displaced from a larger complex.
Next tested was the binding affinity of the wild type and scrambled peptides to the HDAC complex. For this, Fluorescent Polarization (FP), a technology based on molecular movement and rotation in which fluorescent molecules are excited with polarized light, was used. If the fluorescent molecules are part of a large complex, they rotate less and the emitted light has high polarity. In contrast, smaller molecules rotate faster and have low polarity (“depolarized”). […] Using this approach, FITC-labeled wild type or scrambled peptides were first mixed with nuclear extracts from SNU-398 cells. Serial dilutions of unlabeled wild type or scrambled peptides were then added as competitors respectively, and measured by FP assay.

As for `CC(C)(C)C(=O)Nc1ccc2c(c1)C(=O)C(=O)c1ccccc1-2` [SF1670, reference compound], the “effect of wt peptide on pAKT on co-treatment with PTEN inhibitor” value with PTEN/AKT pathway (listed as PTEN inhibitor) is listed as “can be rescued”; in the assay with PTEN/AKT pathway (listed as Pten inhibitor), “abrogated”. The “cell viability on co-treatment with wt peptide (rescue)” value is “able to rescue the phenotype” in the assay on SNU-398 cells, “able to rescue the phenotypes” in the assay with SNU-398 cells (listed as PTEN inhibitor), “restored the cell viability to a baseline level” with SNU-398 cells (listed as SF-1670) and “restored the cell viability to the baseline levels” with THP1 cells. Also, the “cell viability on co-treatment with wt peptide” value with SNU-387 cells and in the assay on KBM5 cells was “showed no effect as well” each time.

As for “NH2-YGRKKRRQRRR-MSAAAQAKPHI-COOH (H-YGRKKRRQRRRMSAAAQAKPHI-OH) [TAT-Mut, reference compound]”, in the assay with HDAC complex, the “binding affinity by FP” value is reported as “minimal binding”. Moreover, the “cell viability / number of viable cells” value with SNU-398 cells (SNU-398 (high SALL4), 72 h) is listed as “did not exhibit such cell killing effect”.
